The record followed here is patent US20210213137A1, “COMPOSITIONS TO TREAT ULTRAVIOLET (UV)-INDUCED SKIN INJURY” (Mayo Foundation for Medical Education and Research, priority 2016, published 2021).

The subject of one experiment is mice skin. The experiment in a line: UVB-induced skin injury in mice (chronic and acute UVB exposure). It is filed as in vivo. The conditions noted are these: topical administration; summary statement. How it is done: (§1) FIG. 2A. […] FIG. 2B. […] 1×1 cm are on the right flank of the mice were exposed to UVB 3 times/week for 3 weeks (n=5). Either vehicle or GNP-VEGF antibody was applied to the area 2 hours after exposure. FIG. 2C. […] All treatments were applied 2 hours post-UVB exposure. Data representative of 2 experiments, n=5. Ear thickness was measured 2 days after UVB exposure. Avastin® and 2C3 are VEGF antibodies. FIG. 2D. Topical administration of GNP-VEGF antibody or small molecular inhibitor (SMI) of VEGF signaling, sorafenib, reduces edema. All treatments were applied 2 hours post UVB exposure. Data representative of 2 experiments, n=5. Ear thickness was measured 2 days after UVB exposure.
Vascular endothelial growth factor (VEGF) was induced by UVB light and works concomitantly with ROS to induce the pathway, and was identified as an upstream regulator of the inflammation pathway.

In the next experiment the test system is mouse ears. The experiment is described as follows: UVB-induced ear edema (ear thickness) in mice. It is filed as in vivo.
Source text: FIG. 1A. Timeline of the acute and chronic effects of UV-induced skin injury. FIG. 1B. Quantitative PCR was used to measure induction of VEGF transcript in mouse skin upon exposure to various doses of UVB (n=3 mice/group). FIG. 1C. Representative photographs of mouse ears two days after UVB exposure. UVB induces angiogenesis in the ear of mice. FIG. 1D. Systemic administration of VEGF antibody 2C3 reduces edema as shown by 50% decrease in ear thickness (p=0.0101, n=4).
as §1

Another experiment deals with primary melanoma tumor. The experiment in a line: Mouse model of melanoma with chronic UVB exposure. It is filed as in vivo, mice. To be noted: summary statement. How it is done: FIG. 3A. […] For Tumor+UV group * p<0.05, ** p<0.01 compared to tumor only, § p<0.05 compared to Tumor+UV+Tx group. No significant difference between tumor only and tumor+UV+Tx group at all time points. Data based on 3 experiments (n=5). FIG. 3B. […] FIG. 3C. Quantification of vessel density via CD31 staining, a marker of vessels.
FIG. 4A. Schematic diagram of experimental setup corresponding to FIG. 3A. All mice were injected with tumor on their right flank on Day 0. Luciferase imaging was done on day 5. Based on luciferase imaging data, mice were assigned to different groups (no UV—tumor only, tumor+UV, and tumor+UV+Tx). Starting on day 6, 1×1 cm area on the tumor was exposed to UVB. Vehicle or treatment was applied 2 hours post UVB exposure. A subset of the mice (n=4) was sacrificed on day 6, 10, 14 and 19 for analysis. FIG. 4B. Survival curve of mice in a separate analogous tumor study to the one represented in FIG. 3A.

In the case of `CNC(=O)c1cc(Oc2ccc(NC(=O)Nc3ccc(Cl)c(C(F)(F)F)c3)cc2)ccn1` [sorafenib], in the experiment on mice skin, the “skin injury following UVB exposure” value was “prevented and/or reduced skin injury”. Moreover, the “acute effects of UV-induced skin damage” value in the experiment with mouse ears (topical administration, mice) is recorded as “inhibited the acute effects of UV-induced skin damage”. In addition, the “edema (ear thickness)” value in the experiment with mouse ears (topical, 2 hours post UVB exposure, ear thickness 2 days after UVB, n=5, FIG. 2D) is given as “reduces edema”.

Turning to bevacizumab [Avastin®], the “skin injury following UVB exposure” value with mice skin is reported as “prevented and/or reduced skin injury”. Besides, the melanoma tumor growth result with primary melanoma tumor was “prevented and/or reduced melanoma tumor growth”.
